4 compounds from patent US4379160A, “Carbazole compounds and medicinal use thereof” (priority 1978, dated 1983) can be followed below.

Counter-ions that a name gives are not always drawn. Like-named read-outs stand apart in the source and are kept apart here. Some results are limits rather than exact numbers.

Data set [1] relates to Rat. The following applies: in vivo; for Muscle Tone Decrease ED min.: ip.
Data set [2] has as its system Mouse. Kind of data set: anticonvulsant activity, Maximal Electroshock Test (MES). The class given is in vivo. To be noted: for ED50: ip, Mouse, Maximal Electroshock Test. The source says:
| ^(a) Maximal Electroshock Test (Woodbury and Davenport, Arch. Int. | Pharmacodyn. Ther., 92, 97-107 (1952).
A general note: Protection in the maximal electroshock model is a classic sign of anticonvulsant action.

Data set [3] relates to muricidal behaviour. Kind of data set: inhibition of instinctive muricidal (mouse killing) behaviour. To be noted: rats. It is filed as in vivo, rat.
Data set [4] in a line: acute lethality (LD50) in male mice. To be noted: mouse, in vivo.
The nature of data set [5]: antagonism of apomorphine-induced aggression (antiaggressive activity). The following applies: rat, in vivo, po.
For data set [6], the system named is apomorphine-induced aggression. Described as above. The following applies: for ED50: Rattus norvegicus.
Data set [7] is described as follows: acute oral lethality (LD50) in rat. The following applies: in vivo, p.o.
Data set [8] has as its system Mouse. To be noted: in vivo; for Loss of Righting Reflex ED min.: ip.
Data set [9] deals with anti-histamine activity. In words: anti-histamine activity. To be noted: in words.
The nature of data set [10]: side-effects such as sedation, catalepsy and extrapyramidal dysfunction. The class given is in vivo. The following applies: in words.
Data set [11] concerns apomorphine induced stereotyped behaviour. In words: apomorphine induced stereotyped behaviour. It is filed as in vivo. The following applies: rat; in words.
In data set [12] the test system is locomotor activity of d-amphetamine. Kind of data set: potentiation of locomotor activity of d-amphetamine. The following applies: in words. It is filed as in vivo.
In data set [13] the test system is anti-cholinergic activity. In words: anti-cholinergic activity. The following applies: in words.
Setting [14] is: po, read-out: Antiaggressive ED50.

The ED50 is the midpoint of the dose-response relation. One may read the LD50 as the dose expected to kill half of the subjects tested. With `C[C@@H]1CN(CCCn2c3ccccc3c3ccccc32)C[C@H](C)N1` [Example 1, 9-[3-(3,5-cis-Dimethylpiperazino)propyl]carbazole dihydrochloride hemihydrate], the “Muscle Tone Decrease ED min.” value in data set [1] came to 125 mg/kg. Also, the 50% effective dose (ED50) in [2] was found to be 43 mg/kg; in data set [3] (Rattus norvegicus, ip, intraperitoneal, read-out: ED50 (anti-muricidal)) it was 15 mg/kg; in data set [6] (ip, read-out: ED50 (anti-aggressive)), 12.5 mg/kg; in [6] (setting [14]), 48 mg/kg. For the same compound, the 50% lethal dose (LD50) in data set [4] (intravenous, read-out: LD50 intravenous) came to 31 mg/kg; in [4] (oral, read-out: LD50 oral), 977 mg/kg; in [7], 957 mg/kg. Also, in [5], the selectivity ratio worked out at 20. Further, the “Loss of Righting Reflex ED min.” value in data set [8] is given as 160 mg/kg.

Consider `C[C@@H]1CN(CCCn2c3ccccc3c3ccccc32)C[C@H](C)N1` [Carbazole, 9-[3-(3,5-cis-dimethylpiperazino)propyl]carbazole], for which the “anticonvulsant activity of the "Carbazole" relative to cpd. B” value in [2] (in words) is “less than half the anticonvulsant activity of cpd. B”. Besides, the “suppression of instinctive muricidal (mouse killing) behaviour” value in [3] (in words) was “suppress the instinctive muricidal (i.e. mouse killing) behaviour”. In addition, the “potency of anti-aggressive and anti-psychotic properties relative to non-methylated, 4-methyl, 3,4,5-trimethyl and 3,5-trans-dimethyl compounds” value in data set [6] (comparison in words) is “more potent than either the corresponding non-methylated compound or any of the analogous 4-methyl, 3,4,5-trimethyl or 3,5-trans-dimethyl compounds”. The “antagonism of apomorphine-induced aggression” value in data set [6] (rat, in words) is recorded as “antagonised apomorphine-induced aggression”. The “anti-histamine activity relative to phenothiazines” value in data set [9] is “significantly less”. Moreover, in [10], the “undesirable side-effects such as sedation, catalepsy and extrapyramidal dysfunction” value is “substantially free from undesirable side-effects”. Besides, the “antagonism of apomorphine induced stereotyped behaviour” value in [11] is listed as “failure to antagonise apomorphine induced stereotyped behaviour”. The “minimum dose for loss of righting reflex relative to compound B” value in data set [8] is “about three times that of compound B”. Besides, the “potentiation of the locomotor activity of d-amphetamine” value in data set [12] is reported as “potentiates the locomotor activity of d-amphetamine”. Moreover, the “anti-cholinergic activity relative to phenothiazines” value in data set [13] was “significantly less”.

The compound `O=C1NC(=O)C(c2ccccc2)(c2ccccc2)N1` [Phenytoin] showed a median effective dose (ED50) in data set [2] of 8.5 mg/kg. In data set [2] (phenytoin vs cpd. A), the “anticonvulsant activity relative to the "Carbazole" (cpd. A)” value is on record as 5 times. Besides, the “anticonvulsant activity relative to cpd. B” value in data set [2] (phenytoin vs cpd. B) is ~2.5 times. Further, the “Loss of Righting Reflex ED min.” value in [8] is given as > 100 mg/kg.

On to `CN1CCN(CCCn2c3ccccc3c3ccccc32)CC1` [compound B, 9-[3-(4-methylpiperazino)propyl]carbazole, reference compound], for which, in data set [1], the “dose at which muscle tone decrease is observed relative to the "Carbazole"” value was “much lower dose” and the “Muscle Tone Decrease ED min.” value worked out at 50 mg/kg. The “level of anticonvulsant activity” value in data set [2] (assessment in words) was “marginal”. In data set [2], this compound came in with a 50% effective dose (ED50) of 20 mg/kg. In data set [5], the selectivity ratio came out at 11. The ED50 in data set [6] (setting [14]) came to 75 mg/kg. The LD50 in [7] was found to be 830 mg/kg. Besides, the “Loss of Righting Reflex ED min.” value in [8] was 50 mg/kg.
